We go through five compounds from patent publication US6552006B2, “Immunomodulatory polynucleotides in treatment of an infection by an intracellular pathogen” (The Regents of the University of California, priority 2000, dated 2003).

Bounds are passed on as bounds.

One series deals with mBMDM. Put plainly: Viability of mBMDM (trypan-blue exclusion). Type of series: cell-based, mouse. How it is done: To examine whether treatment with ISS can stimulate macrophages to inhibit the growth of M. avium, mBMDM (5×10^4 mBMDM/well) was first treated with ISS or M-ODN for 72 hrs and then infected with M. avium. Then, cellular CFU was counted on days 1, 3, and 7 post-infection (FIG. 9A). By day 7, treatment with ISS inhibited intracellular growth of M. avium in mBMDM by 80% (p<0.001). Since viability of macrophages can affect M. avium growth, the viability of macrophages was assessed by trypan-blue exclusion. […]

Series [1] relates to indoleamine 2,3-dioxygenase (IDO). Put plainly: IDO gene induction in vivo in mice, semi-quantitative RT-PCR. The conditions noted are these: injection of M-ODN in mice.
For series [2], the system named is M. avium. Put plainly: Intracellular growth of M. avium in mouse bone marrow-derived macrophages (mBMDM) in vitro, CFU assay. Type of series: cell-based, Mycobacterium avium. The conditions noted are these: for % of CFU: 10 μg/ml 72 h prior to infection, day 7, medium alone = 100%; for M. avium growth in mBMDM: L-try (final 66 μg/ml) or M-try (125 μM) alone; for reductions in the anti-mycobacterial ability of ISS treatment: M. avium-infected mBMDM cultured with L-try (66 μg/ml) or M-try (125 μM) supplemented media plus ISS. Here is the method:
A previously studied M. avium strain 13 (Hayashi, et al. (1999) Infect. Immun. 67:3558-3565; Meylan, et al. (1990) Infect. Immun. 58:2564-2568), isolated from an AIDS patient at UCSD, San Diego, Calif., was used in all experiments. The organism was cultured on Middlebrook 7H11 agar (Difco Laboratories, Detroit, Mich.) with OADC enrichment at 37° C. in the presence of 5% CO2 for two weeks. Transparent colonies were selectively picked and further cultured on Middlebrook 7H11 plates for two more weeks. The resulting colonies, which were predominantly transparent (>90%), were then collected and washed two times with phosphate-buffered saline (PBS). The bacteria were finally resuspended in Middlebrook 7H9 broth (Difco Laboratories) and the OD600 of the suspension was adjusted to 0.15-0.2. The suspension was aliquoted and stored at −70° C. until use. The number of organisms/ml of this suspension was determined by the colony forming unit (CFU) assay.
The number of CFU in a given sample was determined by colony counting as described previously (Ogata, et al. (1992) Infect. Immun. 60:4720-4725). Serial 10-fold dilutions of total cell lysates or tissue homogenates were performed in PBS. 10 μl of each dilution were plated on Middlebrook 7H11 plates supplemented with OADC enrichment. The plates were incubated up to 14 days at 37° C. The number of colonies was counted every alternate day from day 10 onwards until no new colonies appeared. This yielded the number of CFU/10 μl. The number of CFU in each well was then calculated.
Preparation of Murine Macrophages. Mouse bone marrow-derived macrophages (mBMDM) were prepared from mouse bone marrow using L-cell conditioned media, as described in Martin-Orozco, et al. (1999) […] 11:1111-1118.
Alternatively, 5×10^4 mBMDM or hMDM was treated with ISS for 3 days before infection. Macrophages treated with M-ODN or with media alone served as controls. After 3 days, the cells were infected for 2 hrs with M. avium at a macrophage:bacteria ratio of 2:1 for mBMDM or of 1:10 for hMDM, and subsequently cultured in fresh media without antibiotics. To examine attachment and/or invasion of M. avium, the macrophages were lysed immediately after washing, and the number of bacteria were enumerated by the CFU assay. Intracellular growth of M. avium was determined on days 1, 3, and 7 after infection. To account for all the mycobacteria in each group, corresponding lysates were combined and then the number of CFU was determined. To examine the efficacy of anti-mycobacterial treatments, CFU recovered from cells treated with medium alone were considered as 100% growth.
To determine whether treatment with ISS after infection alters M. avium growth, adherent cells were first infected with M. avium for 2 hrs and then these cells were cultured with fresh media containing ISS. Infected cells treated with M-ODN or medium alone served as controls. At day 7, intracellular growth of M. avium was assessed by CFU assay.

In series [3] the test system is M. avium. Put plainly: Growth of M. avium in vivo in C57B1/6 mice, CFU per organ. Further details: species or system Mycobacterium avium.
The test system of a further series is L. major. The conditions noted are these: BALB/c mice; injection four hours after inoculation with live L. major promastigotes; cited from earlier work.
The mark [4] stands for this setting: C57B1/6 mice, 10^7 CFU i.v., treatment from one week after infection, CLA 200 mg/kg alone, 5 weeks after infection.

With “5′-TGACTGTGAAGGTTAGAGATGA-3′ (SEQ ID NO:3) (chemistry not given here) [M-ODN, mutated control oligodeoxynucleotide with 2 base alteration of the CpG motif]”, the “viable mBMDM” value in the series with mBMDM is recorded as > 90%. Besides, the “induction of IDO after injection” value in series [1] was “did not result in any detectable induction of IDO”. Moreover, the “% of CFU” value in the series on M. avium [2] (mBMDM from IFN-αR−/− 129S6/SvEv) is reported as 106.9 ± 11.9%; in the series with M. avium [2] (mBMDM from IFN-γR−/− 129S6/SvEv) it was 108.1 ± 10.8%; with M. avium [2] (mBMDM from IL-12 p40−/− C57B1/6) it was 117.6 ± 9.2%; in the series on M. avium [2] (mBMDM from INOS−/− C57B1/6) it was 105.0 ± 13.9%; in the series on M. avium [2] (mBMDM from NADPH oxidase−/− (gp91 phox−/−) C57B1/6), 107.0 ± 15.5%; with M. avium [2] (mBMDM from TNF-α−/− C57B1/6), 120.0 ± 20.0%. The “% of CFU” value was determined as 110.0 ± 15.9% in the series on M. avium [2] (mBMDM from Wild type 129S6/SvEV) and 117.2 ± 18.5% in the series with M. avium [2] (mBMDM from Wild type C57B1/6). In addition, in the series on M. avium [3] (10^7 organisms/mouse, four weeks after infection), the “CFU in the spleen and lungs compared with control (PBS) mice” value is recorded as “similar”.

`Cn1cc(CC(N)C(=O)O)c2ccccc21` (racemic) [M-try, 1-methyl-DL-tryptophan]: in the series with mBMDM (L-try (final 66 μg/ml) or M-try (125 μM) alone), the “viability of mBMDM” value was “did not alter”. In the series with M. avium [2], the “M. avium growth in mBMDM” value is “did not alter” and the “reductions in the anti-mycobacterial ability of ISS treatment” value stood at 4 fold.

As to `CC[C@H]1OC(=O)[C@H](C)[C@@H](O[C@H]2C[C@@](C)(OC)[C@@H](O)[C@H](C)O2)[C@H](C)[C@@H](O[C@@H]2O[C@H](C)C[C@H](N(C)C)[C@H]2O)[C@](C)(OC)C[C@@H](C)C(=O)[C@H](C)[C@@H](O)[C@]1(C)O` [CLA, Clarithromycin, reference compound], the “reduction of bacterial growth in mBMDM” value with M. avium [2] (mBMDM infected first, then treated, ISS 10 μg/ml, CLA 0.1 μg/ml, 7 days after infection, compared to medium alone) is listed as 84%. In addition, in the series with M. avium [3] (setting [4]), the “decrease of bacterial growth in the liver” value is 4 log, the “decrease of bacterial growth in the lungs” value came out at 1.5 log and the “decrease of bacterial growth in the spleen” value is given as 4 log.

Turning to `N[C@@H](Cc1c[nH]c2ccccc12)C(=O)O` [L-try, L-tryptophan], in the series with M. avium [2], the “M. avium growth in mBMDM” value is “did not alter” and the “reductions in the anti-mycobacterial ability of ISS treatment” value turned out to be 4 fold.

On to CpG-ODN 1826, for which, in the series with L. major, the “animals protected from progressive infection” value was 65%.
